From EP4610269A1, “UROKINASE PLASMINOGEN ACTIVATOR SURFACE RECEPTOR (UPAR) LIGANDS FOR DIAGNOSTIC OR THERAPEUTIC USE” (3B Pharmaceuticals GmbH, priority 2024, dated 2025)
Read-outs that look alike come from different tables or passages of the source. *1 amine or outer side, *2 acyl side, *3 side chain or, on linkers, in order; H or OH if unused. Where a SMILES comes first, the peptide text is derived from it. Bridges are numbered along the chain shown (N, C = ends). [ ]: non-standard residue; d: D form. The star is where a group is joined. DOTA = O=C(O)CN1CCN(CC(=O)O)CCN(CC(=O)*)CCN(CC(=O)O)CC1; Phe(2,4-Cl2) = N[C@@H](Cc1ccc(Cl)cc1Cl)C(=O)O; Pro(cis-4-F) = O=C(O)[C@@H]1C[C@H](F)CN1; 2Nal = N[C@@H](Cc1ccc2ccccc2c1)C(=O)O; Dopa = N[C@@H](Cc1ccc(O)c(O)c1)C(=O)O; cisHyp = O=C(O)[C@@H]1C[C@H](O)CN1; Pentanesulfonyl = CCCCCS(=O)(=O)*; Hyp = O=C(O)[C@@H]1C[C@@H](O)CN1; hPhe = N[C@@H](CCc1ccccc1)C(=O)O; Pentanoyl(4-Me) = CC(C)CCC(=O)*; X1 = O=C(CN1CCN([*:1])CC1)[*:2]; Cit = NC(=O)NCCC[C@H](N)C(=O)O; Butoxycarbonyl = CCCCOC(=O)*; Nle = CCCC[C@H](N)C(=O)O; Orn = NCCC[C@H](N)C(=O)O; Dab = NCC[C@H](N)C(=O)O; Nva = CCC[C@H](N)C(=O)O; Deg = CCC(N)(CC)C(=O)O; Pentanoyl = CCCCC(=O)*

Legend:
[1] = target: T1, uPAR-expressing HEC-265 human endometrial adenocarcinoma cells (Homo sapiens, UniProt Q03405); experiment: Competitive FACS binding assay; conditions: pIC50 category of FACS binding
T1 construct: Cell surface uPAR-expressing HEC-265 human endometrial adenocarcinoma cells; host or cells: HEC-265
Method in brief: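 HEC-265 cells incubated 1 h at 4 °C with 10 nM biotinylated uPAR peptide tracer plus increasing test compound, then stained with APC-streptavidin on ice. Median APC fluorescence by flow cytometry; 4PL fit gives pIC50.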

human uPAR (uPAR-Fc) = target: T2, human uPAR (uPAR-Fc) (Homo sapiens, UniProt Q03405); experiment: Surface plasmon resonance (SPR) assay, single cycle kinetics; assay type: binding; conditions: pKD category for uPAR SPR activity assay, uPAR-Fc on Protein A-Chip, 25°C; for Kd: read-out: pKD CAT (converted)
T2 construct: comprising amino acids Leu23-Arg303 according to UniProt entry Q03405.1; purchased R&D Systems 10378-UK-100
Method in brief: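 uPAR-Fc (Leu23-Arg303 extracellular domains, human IgG1 Fc) captured on Protein A chip to ~2000 RU; single-cycle kinetics at 25°C in HEPES running buffer pH 7.4 with 0.1% DMSO. KD from double-referenced sensorgrams fitted to 1:1 Langmuir model, reported as pKD.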

T2 sequence (Q03405 23-303): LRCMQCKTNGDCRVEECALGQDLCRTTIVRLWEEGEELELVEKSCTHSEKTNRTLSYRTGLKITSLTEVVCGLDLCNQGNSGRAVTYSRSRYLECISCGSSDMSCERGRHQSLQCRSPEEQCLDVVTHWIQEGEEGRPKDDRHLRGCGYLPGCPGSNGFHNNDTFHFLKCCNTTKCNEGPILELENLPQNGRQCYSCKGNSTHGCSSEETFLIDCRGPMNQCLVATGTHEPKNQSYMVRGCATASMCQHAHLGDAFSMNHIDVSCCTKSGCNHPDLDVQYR
T1 sequence (Q03405 23-335): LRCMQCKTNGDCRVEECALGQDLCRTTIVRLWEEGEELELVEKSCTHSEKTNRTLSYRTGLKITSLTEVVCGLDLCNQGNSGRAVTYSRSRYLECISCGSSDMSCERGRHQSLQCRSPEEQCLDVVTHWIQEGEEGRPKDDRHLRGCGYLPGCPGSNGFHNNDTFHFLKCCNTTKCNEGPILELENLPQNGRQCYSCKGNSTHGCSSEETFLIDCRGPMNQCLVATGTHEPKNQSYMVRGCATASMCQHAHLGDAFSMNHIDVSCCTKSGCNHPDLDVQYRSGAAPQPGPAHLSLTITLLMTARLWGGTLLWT

| Compound | IC50 [1] [nM] | Kd (human uPAR (uPAR-Fc)) [nM] | Kd (human uPAR (uPAR-Fc); single cycle kinetics) [nM] | pIC50 CAT [1] | pKD CAT (human uPAR (uPAR-Fc); single cycle kinetics) |
| --- | --- | --- | --- | --- | --- |
| CCCC[C@@H]1NC(=O)[C@H](CCCNC(=N)N)NC(=O)[C@@H](NC(=O)[C@@H](CC(C)C)NC(=O)[C@H](CC(=O)O)NC(C)=O)CSSC[C@@H](C(N)=O)NC(=O)[C@H](CC(C)C)NC(=O)[C@H]([C@@H](C)CC)NC(=O)[C@H](C)NC(=O)[C@@H]2CCCN2C(=O)[C@H](Cc2ccccc2)NC(=O)[C@H](Cc2ccc(O)cc2)NC1=O [UPAR-244, Ac-Asp-leu-[Cys-Arg-Nle-Tyr-Phe-Pro-Ala-Ile-Leu-Cys]-NH2] (Ac-D[dL]CR[Nle]YFPAILC-NH2; disulfide 3-12) | ≤ 10 | < 1.58 |  |  |  |
| CC[C@H](C)[C@@H]1NC(=O)[C@H](C)NC(=O)[C@@H]2CCCN2C(=O)[C@H](Cc2ccccc2)NC(=O)[C@H](Cc2ccc(O)cc2)NC(=O)[C@H](CCSC)NC(=O)[C@H](CCCNC(=N)N)NC(=O)[C@@H](NC(=O)[C@H](CC(C)C)NC(=O)[C@H](CC(=O)O)NC(=O)[C@@H](N)CCSC)CSSC[C@@H](C(N)=O)NC(=O)[C@H](CC(C)C)NC1=O [UPAR-312, H-Met-Asp-Leu-[Cys-Arg-Met-Tyr-Phe-Pro-Ala-Ile-Leu-Cys]-NH2] (H-MDLCRMYFPAILC-NH2; disulfide 4-13) | ≤ 10 | 1.58 to 10 |  |  |  |
| CCCCC(=O)N[C@H]1CSSC[C@@H](C(N)=O)NC(=O)[C@H](CCC)NC(=O)[C@H]([C@@H](C)CC)NC(=O)[C@@H]2C[C@@H](O)CN2C(=O)[C@@H]2CCCN2C(=O)[C@H](Cc2ccccc2)NC(=O)[C@H](Cc2ccc3ccccc3c2)NC(=O)[C@H](CCC(N)=O)NC(=O)[C@H](CCCNC(=N)N)NC1=O [UPAR-259, Pent-[Cys-Arg-Gln-2Ni-Phe-Pro-Hyp-Ile-Nva-Cys]-NH2] (Pentanoyl-CRQ[2Nal]FP[Hyp]I[Nva]C-NH2; disulfide 1-10) | ≤ 10 | < 1.58 |  |  |  |
| CCCCC(=O)N[C@H]1CSSC[C@@H](C(N)=O)NC(=O)[C@H](CCC)NC(=O)[C@H]([C@@H](C)CC)NC(=O)[C@@H]2C[C@@H](O)CN2C(=O)[C@@H]2CCCN2C(=O)[C@H](Cc2ccccc2)NC(=O)[C@H](Cc2ccc(O)cc2)NC(=O)[C@H](CCC(N)=O)NC(=O)[C@@H]2CCCN2C1=O [UPAR-361, Pent-[Cys-Pro-Gln-Tyr-Phe-Pro-Hyp-Ile-Nva-Cys]-NH2] (Pentanoyl-CPQYFP[Hyp]I[Nva]C-NH2; disulfide 1-10) | ≤ 10 |  | < 1.58 |  |  |
| CCCCC(=O)N[C@H]1CSSC[C@@H](C(N)=O)NC(=O)[C@H](CCC)NC(=O)C(CC)(CC)NC(=O)[C@@H]2C[C@@H](O)CN2C(=O)[C@@H]2CCCN2C(=O)[C@H](Cc2ccccc2)NC(=O)[C@H](Cc2ccc(O)cc2)NC(=O)[C@H](CCC(N)=O)NC(=O)[C@H](CCCNC(=N)N)NC1=O [UPAR-179, Pent-[Cys-Arg-Gln-Tyr-Phe-Pro-Hyp-Deg-Nva-Cys]-NH2] (Pentanoyl-CRQYFP[Hyp][Deg][Nva]C-NH2; disulfide 1-10) | ≥ 126 | > 100 |  |  |  |
| CC[C@H](C)[C@@H]1NC(=O)[C@@H](C)NC(=O)[C@@H]2CCCN2C(=O)[C@H](CCc2ccccc2)NC(=O)[C@H](Cc2ccc(O)cc2)NC(=O)[C@H](CCC(N)=O)NC(=O)[C@H](CCCNC(N)=O)NC(=O)[C@@H](NC(=O)CCC(C)C)CSSC[C@@H](C(N)=O)NC(=O)[C@H](CC(C)C)NC1=O [UPAR-180, iHex-[Cys-Cit-Gln-Tyr-Hfe-Pro-ala-Ile-Leu-Cys]-NH2] ({Pentanoyl(4-Me)}-C[Cit]QY[hPhe]P[dA]ILC-NH2; disulfide 1-10) | ≥ 126 | > 100 |  |  |  |
| CC[C@H](C)[C@@H]1NC(=O)[C@@H](C)NC(=O)[C@@H]2CCCN2C(=O)[C@H](Cc2ccccc2)NC(=O)[C@H](Cc2ccc(O)cc2)NC(=O)[C@H](C)NC(=O)[C@H](CCCNC(N)=O)NC(=O)[C@@H](NC(=O)CCC(C)C)CSSC[C@@H](C(N)=O)NC(=O)[C@H](CC(C)C)NC1=O [UPAR-339, iHex-[Cys-Cit-Ala-Tyr-Phe-Pro-ala-Ile-Leu-Cys]-NH2] ({Pentanoyl(4-Me)}-C[Cit]AYFP[dA]ILC-NH2; disulfide 1-10) | ≤ 10 | 1.58 to 10 |  |  |  |
| CCCCOC(=O)N[C@H]1CSSC[C@@H](C(N)=O)NC(=O)[C@H](CCC)NC(=O)[C@H]([C@@H](C)CC)NC(=O)[C@@H]2C[C@@H](O)CN2C(=O)[C@@H]2C[C@H](F)CN2C(=O)[C@H](Cc2ccccc2)NC(=O)[C@H](Cc2ccc(O)c(O)c2)NC(=O)[C@H](CCCNC(=O)CN2CCN(CC(=O)O)CCN(CC(=O)O)CCN(CC(=O)O)CC2)NC(=O)[C@H]([C@@H](C)O)NC1=O [UPAR-280, Butoc-[Cys-Thr-Orn(DOTA)-Dopa-Phe-4Cfp-Hyp-Ile-Nva-Cys]-NH2] (Butoxycarbonyl-CT[Orn](DOTA)[Dopa]F[Pro(cis-4-F)][Hyp]I[Nva]C-NH2; disulfide 1-10) | ≤ 10 | < 1.58 |  |  |  |
| CCCCC(=O)N[C@H]1CCNC(=O)CC[C@@H](C(N)=O)NC(=O)[C@H](CCC)NC(=O)[C@H]([C@@H](C)CC)NC(=O)[C@@H]2C[C@@H](O)CN2C(=O)[C@@H]2CCCN2C(=O)[C@H](Cc2ccccc2)NC(=O)[C@H](Cc2ccc(O)cc2)NC(=O)[C@H](CCC(N)=O)NC(=O)[C@H](CCCNC(=N)N)NC1=O [UPAR-390, Pent-[Dab-Arg-Gln-Tyr-Phe-Pro-Hyp-Ile-Nva-Glu]-NH2] (Pentanoyl-[Dab]RQYFP[Hyp]I[Nva]E-NH2; lactam 1-10) | ≥ 126 |  | > 100 |  |  |
| Pent-[Cys-Cit-Lys(InDOTA-PEG12)-Tyr-Phe-Pro-Hyp-Ile-Nva-Cys]-NH2 (Pentanoyl-C[Cit]KYFP[Hyp]I[Nva]C-NH2; disulfide 1-10; not fully specified (residue 3); printed as Pent-[Cys-Cit-Lys(InDOTA-PEG12)-Tyr-Phe-Pro-Hyp-Ile-Nva-Cys]-NH2; also: In(III) complexed by DOTA) [UPAR-404] |  |  |  | A (pIC50 values ≥8.0) | A (pKD values ≥ 8.8) |
| CCCCC(=O)N[C@H]1CSSC[C@@H](C(N)=O)NC(=O)[C@H](CCC)NC(=O)[C@H]([C@@H](C)CC)NC(=O)CN2CCN(CC2)C(=O)[C@H](Cc2ccccc2)NC(=O)[C@H](Cc2ccc(O)cc2)NC(=O)[C@H](CCC(N)=O)NC(=O)[C@H](CCCNC(=N)N)NC1=O [UPAR-271, Pent-[Cys-Arg-Gln-Tyr-Phe-PPAc-Ile-Nva-Cys]-NH2] (Pentanoyl-CRQYF[X1]I[Nva]C-NH2; disulfide 1-9) | ≥ 126 | > 100 |  |  |  |
| CCCCC(=O)N[C@H]1CSSC[C@@H](C(N)=O)NC(=O)[C@H](CCC)NC(=O)[C@H]([C@@H](C)CC)NC(=O)[C@@H]2C[C@@H](O)CN2C(=O)[C@@H]2CCCN2C(=O)[C@H](Cc2ccc(Cl)cc2Cl)NC(=O)[C@H](Cc2ccc(O)cc2)NC(=O)[C@H](CCCCNC(=O)CN2CCN(CC(=O)O)CCN(CC(=O)O)CCN(CC(=O)O)CC2)NC(=O)[C@H](CCCNC(N)=O)NC1=O [UPAR-315, Pent-[Cys-Cit-Lys(DOTA)-Tyr-Egm-Pro-Hyp-Ile-Nva-Cys]-NHz] (Pentanoyl-C[Cit]K(DOTA)Y[Phe(2,4-Cl2)]P[Hyp]I[Nva]C-NH2; disulfide 1-10) | ≤ 10 | < 1.58 |  |  |  |
| CC[C@H](C)[C@@H]1NC(=O)[C@@H](C)NC(=O)[C@H](C)NC(=O)[C@H](Cc2ccccc2)NC(=O)[C@H](Cc2ccc(O)cc2)NC(=O)[C@H](CCC(N)=O)NC(=O)[C@H](CCCNC(N)=O)NC(=O)[C@@H](NC(=O)CCC(C)C)CSSC[C@@H](C(N)=O)NC(=O)[C@H](CC(C)C)NC1=O [UPAR-319, iHex-[Cys-Cit-Gln-Tyr-Phe-Ala-ala-Ile-Leu-Cys]-NH2] ({Pentanoyl(4-Me)}-C[Cit]QYFA[dA]ILC-NH2; disulfide 1-10) | 39.8 to 100 | 10 to 100 |  |  |  |
| CCCCC(=O)N[C@H]1CSSC[C@@H](C(N)=O)NC(=O)[C@H](CCC)NC(=O)[C@H]([C@@H](C)CC)NC(=O)[C@@H]2C[C@@H](O)CN2C(=O)[C@@H]2CCCN2C(=O)[C@H](Cc2ccccc2)NC(=O)[C@H](Cc2ccc(O)cc2)NC(=O)[C@H](CCCCNC(=O)CN2CCN(CC(=O)O)CCN(CC(=O)O)CCN(CC(=O)O)CC2)NC(=O)[C@H](CO)NC1=O [UPAR-342, Pent-[Cys-Ser-Lys(DOTA)-Tyr-Phe-Pro-Hyp-Ile-Nva-Cys]-NH2] (Pentanoyl-CSK(DOTA)YFP[Hyp]I[Nva]C-NH2; disulfide 1-10) | ≤ 10 | < 1.58 |  |  |  |
| CCCCC(=O)N[C@H]1CSSC[C@@H](C(N)=O)NC(=O)[C@H](CCC)NC(=O)[C@H]([C@@H](C)CC)NC(=O)[C@@H]2C[C@@H](O)CN2C(=O)[C@@H]2C[C@H](O)CN2C(=O)[C@H](Cc2ccccc2)NC(=O)[C@H](Cc2ccc(O)cc2)NC(=O)[C@H](CCCCNC(=O)CN2CCN(CC(=O)O)CCN(CC(=O)O)CCN(CC(=O)O)CC2)NC(=O)[C@H]([C@@H](C)O)NC1=O [UPAR-388, Pent-[Cys-Thr-Lys(DOTA)-Tyr-Phe-Chy-Hyp-Ile-Nva-Cys]-NH2] (Pentanoyl-CTK(DOTA)YF[cisHyp][Hyp]I[Nva]C-NH2; disulfide 1-10) | ≤ 10 |  | 1.58 to 10 |  |  |
| CCCCCS(=O)(=O)N[C@H]1CSSC[C@@H](C(N)=O)NC(=O)[C@H](CCC)NC(=O)[C@H]([C@@H](C)CC)NC(=O)[C@@H]2C[C@@H](O)CN2C(=O)[C@@H]2CCCN2C(=O)[C@H](Cc2ccccc2)NC(=O)[C@H](Cc2ccc(O)cc2)NC(=O)[C@H](CCC(N)=O)NC(=O)[C@H](CCCNC(=N)N)NC1=O [UPAR-328, PentylSO2-[Cys-Arg-Gln-Tyr-Phe-Pro-Hyp-Ile-Nva-Cys]-NH2] (Pentanesulfonyl-CRQYFP[Hyp]I[Nva]C-NH2; disulfide 1-10) | ≤ 10 | < 1.58 |  |  |  |
